Calls of active or inactive are those of the source. The calls are words filed in the database; no cut-off is given here.

As a reminder, the IC50 is the concentration that inhibits the measured activity by half.

The nature of assay [1]: Cytotoxicity against human BGC cells by MTT assay. It counts as functional, cell-based. In general terms: Formazan colour is commonly taken as a measure of viable cells.
The test system of assay [2] is BGC. Briefly: Induction of apoptosis in human BGC cells assessed as loss of mitochondrial membrane potential at 10 uM by JC-1 staining based laser confocal microscopy. It counts as functional, cell-based.
Assay [3] concerns BGC. Kind of assay: Induction of apoptosis in human BGC cells assessed as loss of mitochondrial membrane potential at 10 uM by flow cytometry. In kind it is functional, cell-based. For orientation: Flow cytometry measures light scatter and fluorescence of single cells or particles in a stream.
Assay [4] has as its system BGC. Kind of assay: Induction of apoptosis in human BGC cells assessed as morphological changes at 12.5 uM by Hoechst staining based laser confocal microscopy. It counts as functional, cell-based.
Assay [5] can be described thus: Induction of apoptosis in human BGC cells assessed as early stage apoptotic cell count at 25 uM after 24 hrs using Annexin-V-FITC PI stain by flow cytometry. It counts as functional.
A short description of assay [6]: Induction of apoptosis in human BGC cells assessed as late stage apoptotic cell count at 25 uM after 24 hrs using Annexin-V-FITC PI stain by flow cytometry. It counts as functional.
Assay [7] in a line: Induction of apoptosis in human BGC cells assessed as non apoptotic cell count at 25 uM after 24 hrs using Annexin-V-FITC PI stain by flow cytometry. In kind it is functional.
A short description of assay [8]: Induction of apoptosis in human BGC cells assessed as dead cell count at 25 uM after 24 hrs using Annexin-V-FITC PI stain by flow cytometry. It counts as functional.
The subject of assay [9] is BGC. Kind of assay: Induction of apoptosis in human BGC cells assessed as bursting of ROS in mitochondria at 5 uM by DCFH-DA based fluorescence scanning confocal microscopy. In kind it is functional, cell-based.
Assay [10] concerns BGC. Briefly: Induction of apoptosis in human BGC cells assessed as bursting of ROS in mitochondria at 5 uM by flow cytometry. It counts as functional, cell-based.
Assay [11] has as its system BGC. Kind of assay: Induction of apoptosis in human BGC cells assessed as bursting of ROS in mitochondria at 5 uM in presence of N-acetyl-cysteine. In kind it is functional.
A short description of assay [12]: Induction of apoptosis in human BGC cells assessed as accumulation at subG1 at 25 uM after 24 hrs by flow cytometry analysis. It counts as functional.

In assay [1], `C[N+]1(CCCn2cc(COc3cccc4c3C(=O)c3cccc(OCc5cn(CCC[N+]6(C)CC6)nn5)c3C4=O)nn2)CC1` came in with an IC50 of 9.31 µM. Moreover, the outcome in the assay with BGC [2] was Active. The Activity entry in the assay with BGC [3] was “Dose-dependent effect”.
`C[N+]1(CCn2cc(COc3cccc4c3C(=O)c3cccc(OCc5cn(CC[N+]6(C)CCCC6)nn5)c3C4=O)nn2)CCCC1` showed a half-maximal inhibitory concentration (IC50) in assay [1] of 6.52 µM. Also, the outcome with BGC [2] was Active. Moreover, in the assay with BGC [3], the Activity result is “Dose-dependent effect”.
`C[N+]1(CCn2cc(COc3cccc4c3C(=O)c3cccc(OCc5cn(CC[N+]6(C)CCCCC6)nn5)c3C4=O)nn2)CCCCC1.[I-].[I-]` registered an IC50 in [1] of 4.02 µM. The outcome in the assay on BGC [4], with BGC [9] and in the assay on BGC [2] was Active. The Activity is 22.8% in assay [5]; 1% in assay [6]; 74.2% in assay [7]; 2.1% in assay [8]; “Dose-dependent effect” with BGC [10]; “Dose-dependent effect” in the assay with BGC [3]. In addition, the Activity in assay [12] is listed as 39.4%. For the same molecule, the outcome in the assay on BGC [11] was inactive.

The values above are taken from ChEMBL document CHEMBL1152180, “Novel anthraquinone derivatives: synthesis via click chemistry approach and their induction of apoptosis in BGC gastric cancer cells via reactive oxygen species (ROS)-dependent mitochondrial pathway” (Bioorg Med Chem Lett, 2008).
